Assay results as given in US10040789B2, “1,3,4-thiadiazole compounds and their use in treating cancer” (AstraZeneca AB, priority 2015, dated 2018).
Where two headings read alike, the source gives them in different places.

How the values were obtained:
NCI-H1703 cells = test: GLS Cell Proliferation Assay (NCI-H1703 cell proliferation); assay type: cell-based
Source text: (§1) The following assays were used to measure the effects of the compounds described herein: a) GLS Enzyme Potency Assay; b) GLS Cell Potency Assay; c) GLS Cell Proliferation Assay. During the description of the assays, generally: • i. The following abbreviations have been used: CO2=Carbon dioxide; DMEM=Dulbecco's Modified Eagle Medium; DMSO=Dimethyl sulphoxide; EDTA=Ethylenediaminetetraacetic acid; EGTA=Ethylene glycol tetraacetic acid; FCS=Foetal calf serum; h=Hour(s); NBS=Non-binding surface; SDS=Sodium dodecyl sulphate; TRIS=Tris(Hydroxymethyl)aminomethane. • ii. IC50 values were calculated using a smart fitting model in Genedata.
Assay c): GLS Cell Proliferation Assay
The ability of compounds to inhibit cell growth was measured using a 384 well plate NCI-H1703 cell proliferation assay. NCI-H1703 cells were grown in phenol red free RPMI1640, 10% FCS and 2 mM glutamine and seeded at a density of 750 cells per well in 40 μl of growth medium into clear-bottom 384 well assay plates (Corning product code 3712) and incubated for 24 h at 37° C., 5% CO2. Test compounds were prepared by dilution in 100% DMSO to give the correct dose range for 12 point concentration response and an appropriate volume (5-120 nl) dispensed directly into the assay plates containing plated cells. DMSO concentration was maintained at 0.3% by back filling with DMSO solution. Plates were incubated for 5 days at 37° C., 5% CO2, Sytox Green and Saponin added to final concentration of 2 μM and 0.25% respectively and incubated for 6 h prior to analysis. Plates were read on an Acumen eX3 (TTP Labtech) using 488 nm excitation and FITC filter set (500-530 nm) for emission. IC50 values were calculated by curve fitting to max inhibition of day zero growth using GeneData software analysis.

GLS1 = GLS1 (Homo sapiens (Human), UniProt O94925); test: GLS Enzyme Potency Assay (Glutamate Oxidase/AmplexRed coupled assay); assay type: biochemical
Source text: as §1
Assay a): GLS Enzyme Potency Assay
A Glutamate Oxidase/AmplexRed coupled assay was used to measure the ability of compounds to bind to and inhibit the activity of GLS1 in vitro. […] GLS1 was diluted to 2×working concentration and incubated at room temperature to allow the tetrameric/dimeric forms to reach steady state. Assay measurements were performed in buffer comprising 50 mM TRIS pH 7.8, 100 mM NaPO4, pH 7.8, 0.001% v/v Tween20. […] DMSO concentration was maintained at 2% by back filling with DMSO solution. […] 3 μL of 100 mM glutamine diluted in assay buffer was then added and the reaction incubated at room temperature for 60 minutes. […] An artefact version of the assay where the 6His tagged GLS protein and glutamine were replaced with assay buffer was also used to rule out non specific effects on the assay components.

[1] = target: cellular GLS activity in PC3 cells (Homo sapiens (Human), UniProt O94925); test: GLS Cell Potency Assay (PC3 coupled assay measuring cellular glutamate depletion); assay type: cell-based; details: PC3 cells, 6 h incubation, cellular glutamate depletion; read-out: Assay b) GLS cell MOA Mean IC50
Source text: as §1
Assay b): GLS Cell Potency Assay
Compounds were assessed for their potential to inhibit cellular GLS activity by use of a PC3 coupled assay measuring cellular glutamate depletion. […] DMSO concentration was maintained at 0.3% by back filling with DMSO solution. PC3 cells were grown in phenol free DMEM, 10% dialyzed FCS, 2 mM glutamine and following dispersal by trypsinisation were plated at 5.6×10^3 cells per well in 40 μl of growth medium directly into the 384 well assay plates containing dispensed compound. After incubation for 6 h at 37° C., 5% CO2 growth media was aspirated and cells lysed in 15 μl of buffer containing 10 mM TRIS pH7.4, 100 mM NaCl, 1 mM EDTA, 1 mM EGTA, 1 mM NaF, 20 mM Na4P2O7, 2 mM Na3VO4, 1% Triton X-100, 10% glycerol, 0.1% SDS and 0.5% deoxycholate. 4 μl Of cell lysate was then transferred to a 384 well NBS plate (Corning product code 3575) and 35 μl of […] Amplex Red, 0.1375 U/mL Horseradish Peroxidase, 0.044 U/mL glutamate oxidase, 100 mM TRIS pH7.5 was added.

[2] = Homo sapiens, 120 h; NCI-H1703 cells, 5 days incubation, Sytox Green; read-out: Assay c) Prolif Mean IC50
[3] = Homo sapiens, NCI-H1703, 120 h, NCI-H1703 cells, 5 days incubation, Sytox Green; read-out: Assay c) Prolif Mean IC50
[4] = recombinant 6His tagged GLS protein (amino acids 63-669), 60 minutes reaction with glutamine

Sequence of cellular GLS activity in PC3 cells (O94925 55-669): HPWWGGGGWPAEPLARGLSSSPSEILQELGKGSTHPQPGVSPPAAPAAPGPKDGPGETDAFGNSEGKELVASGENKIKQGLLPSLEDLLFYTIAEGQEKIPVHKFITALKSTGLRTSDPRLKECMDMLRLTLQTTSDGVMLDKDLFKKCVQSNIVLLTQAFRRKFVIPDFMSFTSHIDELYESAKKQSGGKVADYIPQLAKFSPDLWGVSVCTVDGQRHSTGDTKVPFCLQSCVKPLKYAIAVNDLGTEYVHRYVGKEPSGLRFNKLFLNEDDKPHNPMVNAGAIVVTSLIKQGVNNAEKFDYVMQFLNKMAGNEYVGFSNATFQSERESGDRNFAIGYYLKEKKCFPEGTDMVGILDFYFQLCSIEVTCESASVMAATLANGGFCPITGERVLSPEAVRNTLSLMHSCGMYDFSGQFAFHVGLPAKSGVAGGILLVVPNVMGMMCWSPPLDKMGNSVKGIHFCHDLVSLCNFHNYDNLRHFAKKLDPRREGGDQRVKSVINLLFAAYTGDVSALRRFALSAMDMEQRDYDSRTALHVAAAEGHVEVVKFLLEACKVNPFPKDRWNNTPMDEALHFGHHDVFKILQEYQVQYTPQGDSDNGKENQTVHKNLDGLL
Sequence of GLS1 (O94925 63-669): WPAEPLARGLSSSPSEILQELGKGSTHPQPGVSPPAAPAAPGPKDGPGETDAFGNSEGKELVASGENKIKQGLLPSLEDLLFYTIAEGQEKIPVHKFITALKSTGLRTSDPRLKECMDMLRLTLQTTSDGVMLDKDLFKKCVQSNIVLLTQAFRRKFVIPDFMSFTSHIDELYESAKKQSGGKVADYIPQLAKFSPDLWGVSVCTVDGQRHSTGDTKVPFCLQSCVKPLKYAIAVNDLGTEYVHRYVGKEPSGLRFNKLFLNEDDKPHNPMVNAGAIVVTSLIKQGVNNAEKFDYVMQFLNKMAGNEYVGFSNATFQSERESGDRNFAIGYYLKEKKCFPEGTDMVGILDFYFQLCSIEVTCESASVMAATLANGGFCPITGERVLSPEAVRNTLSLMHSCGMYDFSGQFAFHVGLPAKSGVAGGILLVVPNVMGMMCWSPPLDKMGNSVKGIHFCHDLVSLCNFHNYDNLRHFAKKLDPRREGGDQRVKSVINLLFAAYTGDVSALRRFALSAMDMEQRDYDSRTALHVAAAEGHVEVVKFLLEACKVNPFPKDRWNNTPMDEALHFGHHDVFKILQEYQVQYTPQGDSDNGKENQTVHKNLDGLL

IC50 (GLS1) | IC50 [1] | IC50 (GLS1; [4]) | Structure (SMILES) | IC50 (NCI-H1703 cells; [2]) | IC50 (NCI-H1703 cells; [3]) | IC50 (NCI-H1703 cells; NCI-H1703 cells, 5 days incubation, Sytox Green; read-out: Assay c) Prolif Mean IC50)
 |  |  | CN(C)[C@@H](C(=O)Nc1nnc(N[C@@H]2CCN(c3cccnn3)C2)s1)c1ccccc1 (single isomer, unassigned) [Example 1(b)] | 54.7 nM |  | 
 |  |  | CN(C)[C@@H](C(=O)Nc1nnc(N[C@@H]2CCN(c3cccnn3)C2)s1)c1ccc(F)cc1 (single isomer, unassigned) [Example 2(b)] | 97.9 nM |  | 
522 nM | 1.91 nM |  | CN(C)[C@@H](C(=O)Nc1nnc(N[C@@H]2CCN(c3cccnn3)C2)s1)c1cccc(OC(F)(F)F)c1 (single isomer, unassigned) [Example 4(b)] |  | 2.52 nM | 
 |  |  | O=C(Nc1nnc(N[C@@H]2CCN(c3cccnn3)C2)s1)[C@@H](c1cccc(OC(F)F)c1)N1CCC1 (single isomer, unassigned) [Example 5(b)] | 13.2 nM |  | 
944 nM | 29.7 nM |  | COc1cccc([C@H](C(=O)Nc2nnc(N[C@@H]3CCN(c4cccnn4)C3)s2)N2CCC2)c1 (single isomer, unassigned) [Example 6(b)] |  | 80.8 nM | 
132 nM | 1.77 nM |  | O=C(Nc1nnc(N[C@@H]2CCN(c3cccnn3)C2)s1)[C@@H](c1ccc(F)c(OC(F)(F)F)c1)N1CCC1 (single isomer, unassigned) [Example 11(b)] |  | 30.1 nM | 
 |  |  | CN(C)[C@H](C(=O)Nc1nnc(N[C@@H]2CCN(c3cccnn3)C2)s1)c1ccccc1 [Example 1(a), (2S)-2-(Dimethylamino)-2-phenyl-N-[5-[[(3R)-1-pyridazin-3-ylpyrrolidin-3-yl]amino]-1,3,4-thiadiazol-2-yl]acetamide] | 68.6 nM |  | 
 |  |  | CN(C)[C@H](C(=O)Nc1nnc(N[C@@H]2CCN(c3cccnn3)C2)s1)c1ccc(F)cc1 [Example 2(a), (2S)-2-(dimethylamino)-2-(4-fluorophenyl)-N-[5-[[(3R)-1-pyridazin-3-ylpyrrolidin-3-yl]amino]-1,3,4-thiadiazol-2-yl]acetamide] | 89.6 nM |  | 
 | 11.2 nM | 261 nM | CN(C)[C@H](C(=O)Nc1nnc(N[C@@H]2CCN(c3cccnn3)C2)s1)c1cccc(OC(F)F)c1 [Example 3(a), (2S)-2-[3-(difluoromethoxy)phenyl]-2-(dimethylamino)-N-[5-[[(3R)-1-pyridazin-3-ylpyrrolidin-3-yl]amino]-1,3,4-thiadiazol-2-yl]acetamide] | 12.7 nM |  | 
52.4 nM | 0.295 nM |  | CN(C)[C@@H](C(=O)Nc1nnc(N[C@@H]2CCN(c3cccnn3)C2)s1)c1cccc(OC(F)F)c1 [Example 3(b), (2R)-2-[3-(difluoromethoxy)phenyl]-2-(dimethylamino)-N-[5-[[(3R)-1-pyridazin-3-ylpyrrolidin-3-yl]amino]-1,3,4-thiadiazol-2-yl]acetamide] | 8.25 nM |  | 
 | 0.405 nM | 56.4 nM | CN(C)[C@H](C(=O)Nc1nnc(N[C@@H]2CCN(c3cccnn3)C2)s1)c1cccc(OC(F)(F)F)c1 [Example 4(a), (2S)-2-(dimethylamino)-N-[5-[[(3R)-1-pyridazin-3-ylpyrrolidin-3-yl]amino]-1,3,4-thiadiazol-2-yl]-2-[3-(trifluoromethoxy)phenyl]acetamide] |  |  | 8.41 nM
 |  |  | O=C(Nc1nnc(N[C@@H]2CCN(c3cccnn3)C2)s1)[C@H](c1cccc(OC(F)F)c1)N1CCC1 [Example 5(a), (2S)-2-(azetidin-1-yl)-2-[3-(difluoromethoxy)phenyl]-N-[5-[[(3R)-1-pyridazin-3-ylpyrrolidin-3-yl]amino]-1,3,4-thiadiazol-2-yl]acetamide] | 29.3 nM |  | 
 | 22 nM | 981 nM | COc1cccc([C@@H](C(=O)Nc2nnc(N[C@@H]3CCN(c4cccnn4)C3)s2)N2CCC2)c1 [Example 6(a), (2S)-2-(azetidin-1-yl)-2-(3-methoxyphenyl)-N-[5-[[(3R)-1-pyridazin-3-ylpyrrolidin-3-yl]amino]-1,3,4-thiadiazol-2-yl]acetamide] |  | 29.3 nM | 
 | 8.61 nM | 1330 nM | O=C(Nc1nnc(N[C@@H]2CCN(c3cccnn3)C2)s1)[C@H](c1cccc(OC(F)(F)F)c1)N1CCC1 [Example 7(a), (2S)-2-(azetidin-1-yl)-N-[5-[[(3R)-1-pyridazin-3-ylpyrrolidin-3-yl]amino]-1,3,4-thiadiazol-2-yl]-2-[3-(trifluoromethoxy)phenyl]acetamide] | 6.24 nM |  | 
102 nM | 0.985 nM |  | O=C(Nc1nnc(N[C@@H]2CCN(c3cccnn3)C2)s1)[C@@H](c1cccc(OC(F)(F)F)c1)N1CCC1 [Example 7(b), (2R)-2-(azetidin-1-yl)-N-[5-[[(3R)-1-pyridazin-3-ylpyrrolidin-3-yl]amino]-1,3,4-thiadiazol-2-yl]-2-[3-(trifluoromethoxy)phenyl]acetamide] | 2.45 nM |  | 
 | 1.91 nM | 53 nM | CN1CCc2ccccc2[C@H]1C(=O)Nc1nnc(N[C@@H]2CCN(c3cccnn3)C2)s1 [Example 8(a), (1S)-2-methyl-N-[5-[[(3R)-1-pyridazin-3-ylpyrrolidin-3-yl]amino]-1,3,4-thiadiazol-2-yl]-3,4-dihydro-1H-isoquinoline-1-carboxamide] | 8.81 nM |  | 
194 nM | 20.9 nM |  | CN1CCc2ccccc2[C@@H]1C(=O)Nc1nnc(N[C@@H]2CCN(c3cccnn3)C2)s1 [Example 8(b), (1R)-2-methyl-N-[5-[[(3R)-1-pyridazin-3-ylpyrrolidin-3-yl]amino]-1,3,4-thiadiazol-2-yl]-3,4-dihydro-1H-isoquinoline-1-carboxamide] | 85.1 nM |  | 
 | 2.81 nM | 132 nM | Cc1ccc([C@@H](C(=O)Nc2nnc(N[C@@H]3CCN(c4cccnn4)C3)s2)N(C)C)cc1 [Example 9, (2S)-2-(dimethylamino)-2-(4-methylphenyl)-N-[5-[[(3R)-1-pyridazin-3-ylpyrrolidin-3-yl]amino]-1,3,4-thiadiazol-2-yl]acetamide] | 44.8 nM |  | 
 | 2.12 nM | 59.2 nM | Cc1cccc([C@@H](C(=O)Nc2nnc(N[C@@H]3CCN(c4cccnn4)C3)s2)N(C)C)c1 [Example 10, (2S)-2-(dimethylamino)-2-(3-methylphenyl)-N-[5-[[(3R)-1-pyridazin-3-ylpyrrolidin-3-yl]amino]-1,3,4-thiadiazol-2-yl]acetamide] | 21.2 nM |  | 
 | 30.8 nM | 952 nM | O=C(Nc1nnc(N[C@@H]2CCN(c3cccnn3)C2)s1)[C@H](c1ccc(F)c(OC(F)(F)F)c1)N1CCC1 [Example 11(a), (2S)-2-(Azetidin-1-yl)-2-[4-fluoro-3-(trifluoromethoxy)phenyl]-N-[5-[[(3R)-1-pyridazin-3-ylpyrrolidin-3-yl]amino]-1,3,4-thiadiazol-2-yl]acetamide] |  | 19.1 nM | 
 | 15.3 nM | 2510 nM | O=C(Nc1nnc(N[C@@H]2CCN(c3ccc(F)nn3)C2)s1)[C@H](c1cccc(OC(F)(F)F)c1)N1CCC1 [Example 12(a), (2S)-2-(azetidin-1-yl)-N-[5-[[(3R)-1-(6-fluoropyridazin-3-yl)pyrrolidin-3-yl]amino]-1,3,4-thiadiazol-2-yl]-2-[3-(trifluoromethoxy)phenyl]acetamide] | 11.6 nM |  | 
